Experimental findings from US20240408169A1 (priority 2023, published 2024) are described below.

Like-named read-outs stand apart in the source and are kept apart here. *1 amine or outer side, *2 acyl side, *3 side chain or, on linkers, in order; H or OH if unused. Where a SMILES comes first, the peptide text is derived from it. Bridges are numbered along the chain shown (N, C = ends). [ ]: non-standard residue; d: D form. The star is where a group is joined. NMePhe(2-(4-MorPh),5-Cl) = CN[C@@H](Cc1cc(Cl)ccc1-c1ccc(N2CCOCC2)cc1)C(=O)O; X63 = CC(C)N1CCN(c2ccc(-c3ccc(Cl)cc3C[C@@H](C(=O)[*:2])N(C)[*:1])cc2F)CC1; X70 = CN1CCC[C@@H](c2ccc(-c3ccc(Cl)cc3C[C@@H](C(=O)[*:2])N(C)[*:1])cc2)C1; X62 = CN1CCC[C@H](c2ccc(-c3ccc(Cl)cc3C[C@@H](C(=O)[*:2])N(C)[*:1])cc2)C1; X95 = CN1CCCC[C@H]1c1ccc(-c2ccc(Cl)cc2C[C@@H](C(=O)[*:2])N(C)[*:1])cc1; NMehhhLys(Me) = CN([C@@H](CCCCCCCN(C)[*:3])C(=O)[*:2])[*:1]; cBuCO(3,3-F2-1-CF3) = O=C(C1(C(F)(F)F)CC(F)(F)C1)*; Pro(trans-4-F) = O=C(O)[C@@H]1C[C@@H](F)CN1; Nva(5-OH) = N[C@@H](CCCO)C(=O)O; Gly(cPr) = N[C@H](C(=O)O)C1CC1

For data set [1] the following is noted: from (S,Z)-2-((((9H-fluoren-9-yl)methoxy)carbonyl)(methyl)amino)-9-((S)-2-((S)-2-(12-azaneyl)-N,4-dimethylpentanamido)-3-(5-chloro-2-cyclopropoxypyridin-3-yl)-N-methylpropanamido)non-4-enoic acid TFA salt; amide bond; 16-membered ring; PyBOP/HOAt/DIEA; DCM; 2.6 mM; 25.0 °C.
In data set [2] the test system is NCI-H1048 cells. Put plainly: MTT proliferation assay, NCI-H1048.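 Further: Dose-response in 96-well plates over 8 or 10 concentration points, with exposure spanning 3-4 cell doublings.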 It is filed as cell-based. The conditions noted are these: 5 days compound exposure, 1:3 serial dilution starting at 10 μM. (Tetrazolium dyes change colour on reduction, which living cells bring about.)
Data set [3] deals with T1, CyclinA2/CDK2 (Homo sapiens, UniProt P20248).
T1 construct: purchased CRELUX Protein Services
Put plainly: Fluorescence Polarization (FP) competitive binding assay, Cyclin A2/Cdk2.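 Further: plates equilibrated two hours at room temperature before polarization reading, IC50 fitted from eight-concentration compound titration curves.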 The conditions noted are these: 8 nM Cyclin A2/Cdk2, 2 nM FAM probe; average of 2-3 independent experiments; read-out: Cyclin A FP IC50. For orientation: Fluorescence polarisation rises when a labelled molecule tumbles more slowly, as on binding a larger partner.

For data set [4], the target named is T2, CyclinB1/CDK1 (Homo sapiens, UniProt P14635).
T2 construct: purchased Eurofins, discovery 14-450
Put plainly: Fluorescence Polarization (FP) competitive binding assay, Cyclin B1/Cdk1.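 Further: fluorescence polarization read after equilibration at room temperature, with IC50 taken from serially diluted dose-response curves.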 The conditions noted are these: 10 nM Cyclin B1/Cdk1, 2 nM FAM probe; average of 2-3 independent experiments; read-out: Cyclin B FP IC50.

For data set [5], the system named is OVCAR3 cells. Kind of data set: MTT proliferation assay, OVCAR3.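 Further: compound given as an 8- or 10-point series, one day after plating, with exposure covering roughly 3-4 cell doublings.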 It is filed as cell-based. The conditions noted are these: 5 days compound exposure, 1:3 serial dilution starting at 10 μM.
Data set [6] deals with T3, CyclinE1/CDK2 (Homo sapiens, UniProt P24864).
T3 construct: purchased Eurofins, discovery 14-475
Put plainly: Fluorescence Polarization (FP) competitive binding assay, Cyclin E1/Cdk2.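 Further: readings taken after two-hour equilibration at room temperature in HEPES buffer with NaCl, DTT, NP-40 and BSA, IC50 fitted from eight-concentration serial dilution series.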 The conditions noted are these: 10 nM Cyclin E1/Cdk2, 2 nM FAM probe; average of 2-3 independent experiments; read-out: Cyclin E FP IC50.

Data set [7] concerns WI-38 cells. Put plainly: MTT proliferation assay, WI-38.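 Further: Eight- or ten-point dilution series, with exposure length chosen to span about three to four cell doublings.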 The class given is cell-based. The conditions noted are these: 3 days compound exposure, 1:3 serial dilution starting at 10 μM.

With `CC(C)C[C@@H]1NC(=O)[C@@H](N(C)C(=O)OCC2c3ccccc3-c3ccccc32)C/C=C\CCCCN(C)C(=O)[C@H](Cc2cc(Cl)cnc2OC2CC2)N(C)C1=O`, the ring closure, yield of all isomers (from CC(C)C[C@H](N)C(=O)N(C)[C@@H](Cc1cc(Cl)cnc1OC1CC1)C(=O)N(C)CCCC/C=C\C[C@@H](C(=O)O)N(C)C(=O)OCC1c2ccccc2-c2ccccc21, amide bond, PyBOP/HOAt/DIPEA, DCM, 2.57 mM, 25.0 °C) was found to be 30%.
Take `CC(C)C[C@@H]1NC(=O)[C@@H](N(C)C(=O)[C@@H](NC(=O)OC(C)(C)C)C2CC2)CC=CCCCCN(C)C(=O)[C@H](Cc2cc(F)ccc2Br)N(C)C1=O`: where the note is “from C=CCCCCN(C)C(=O)[C@H](Cc1cc(F)ccc1Br)N(C)C(=O)[C@H](CC(C)C)NC(=O)[C@H](CC=C)N(C)C(=O)[C@@H](NC(=O)OC(C)(C)C)C1CC1, rcm bond, Hoveyda-Grubbs II, DCE, 6.3 mM, 70.0 °C”, the ring closure, yield of all isomers came out at 67%.
As to `CCN(C(=O)OC1c2ccccc2-c2ccccc21)[C@H]1C/C=C\CCCCN(C)C(=O)[C@H](Cc2cc(Cl)cnc2OC2CC2)N(C)C(=O)[C@H](CC(C)C)NC1=O`, the ring closure, isolated yield in data set [1] amounted to 30%.
`CC(C)C[C@@H]1NC(=O)[C@@H](N(C)C(=O)[C@@H](NC(=O)[C@@H]2C[C@@H](F)CN2C(=O)C2(C(F)(F)F)CC(F)(F)C2)C2CC2)CCCCCCCN(C)C(=O)[C@H](Cc2cc(Cl)ccc2-c2ccc([C@@H]3CCCN(C)C3)cc2)N(C)C1=O` [Example 411] ({cBuCO(3,3-F2-1-CF3)}-[Pro(trans-4-F)][Gly(cPr)][NMehhhLys(Me)]L[X70]; lactam 3-C): the GI50 (in general, the concentration that inhibits growth by half) in data set [2] worked out at 10 nM; in data set [5] it was 10 nM; in data set [7] it was 1610 nM. Besides, the results for the IC50 in data set [3], in data set [4] and in data set [6] were 20 nM, 20 nM and 760 nM, respectively.
With `CC(C)C[C@@H]1NC(=O)[C@@H](N(C)C(=O)[C@@H](NC(=O)[C@@H]2C[C@@H](F)CN2C(=O)C2(C(F)(F)F)CC(F)(F)C2)C2CC2)CCCCCCCN(C)C(=O)[C@H](Cc2cc(Cl)ccc2-c2ccc([C@H]3CCCN(C)C3)cc2)N(C)C1=O` [Example 412] ({cBuCO(3,3-F2-1-CF3)}-[Pro(trans-4-F)][Gly(cPr)][NMehhhLys(Me)]L[X62]; lactam 3-C), the figures for the GI50 in data set [2], in data set [5] and in data set [7] were 10 nM, 10 nM and 1060 nM, respectively. Further, the IC50 (as a rule, the point on the concentration scale where inhibition reaches its midpoint) amounted to 20 nM in data set [3], 20 nM in data set [4] and 1390 nM in data set [6].
Take `CC(C)C[C@@H]1NC(=O)[C@@H](N(C)C(=O)[C@@H](NC(=O)[C@@H]2C[C@@H](F)CN2C(=O)C2(C(F)(F)F)CC(F)(F)C2)C2CC2)CCCCCCCN(C)C(=O)[C@H](Cc2cc(Cl)ccc2-c2ccc(N3CCN(C(C)C)CC3)c(F)c2)N(C)C1=O` [Example 413] ({cBuCO(3,3-F2-1-CF3)}-[Pro(trans-4-F)][Gly(cPr)][NMehhhLys(Me)]L[X63]; lactam 3-C): the GI50 in data set [2] was determined as 10 nM; in data set [5], 10 nM; in data set [7] it was 1600 nM. The values for the IC50 in data set [3], in data set [4] and in data set [6] were 20 nM, 20 nM and 1310 nM, respectively.
Take `COC(=O)CC[C@H](NC(=O)[C@@H]1C[C@@H](F)CN1C(=O)C1(C(F)(F)F)CC(F)(F)C1)C(=O)N(C)[C@H]1CCCCCCCN(C)C(=O)[C@H](Cc2cc(Cl)ccc2-c2ccc(N3CCOCC3)cc2)N(C)C(=O)[C@H](CC(C)C)NC1=O` [Example 415] ({cBuCO(3,3-F2-1-CF3)}-[Pro(trans-4-F)]E(OMe)[NMehhhLys(Me)]L[NMePhe(2-(4-MorPh),5-Cl)]; lactam 3-C): the GI50 in data set [2] was 10 nM; in data set [5] it was 10 nM; in data set [7], 14100 nM. Moreover, the half-maximal inhibitory concentration (IC50) in data set [3] is 20 nM; in data set [4], 20 nM; in data set [6], 300 nM.
Take `CC(C)C[C@@H]1NC(=O)[C@@H](N(C)C(=O)[C@@H](NC(=O)[C@@H]2C[C@@H](F)CN2C(=O)C2(C(F)(F)F)CC(F)(F)C2)C2CC2)CCCCCCCN(C)C(=O)[C@H](Cc2cc(Cl)ccc2-c2ccc([C@@H]3CCCCN3C)cc2)N(C)C1=O` [Example 417] ({cBuCO(3,3-F2-1-CF3)}-[Pro(trans-4-F)][Gly(cPr)][NMehhhLys(Me)]L[X95]; lactam 3-C): the GI50 amounted to 10 nM in data set [2], 10 nM in data set [5] and 1160 nM in data set [7]. Besides, the IC50 in data set [3] turned out to be 30 nM; in data set [4] it was 20 nM; in data set [6] it was 2650 nM.
In the case of `CC(C)C[C@@H]1NC(=O)[C@@H](N(C)C(=O)[C@H](CCC(=O)N(C)C)NC(=O)[C@@H]2C[C@@H](F)CN2C(=O)C2(C(F)(F)F)CC(F)(F)C2)CCCCCCCN(C)C(=O)[C@H](Cc2cc(Cl)ccc2-c2ccc(N3CCOCC3)cc2)N(C)C1=O` [Example 419, (S)—N1-((3S,6S,9S)-3-((4-chloro-4′-morpholino-[1,1′-biphenyl]-2-yl)methyl)-6-isobutyl-1,4-dimethyl-2,5,8-trioxo-1,4,7-triazacyclohexadecan-9-yl)-2-((2S,4R)-1-(3,3-difluoro-1-(trifluoromethyl)cyclobutane-1-carbonyl)-4-fluoropyrrolidine-2-carboxamido)-N1,N5,N5-trimethylpentanediamide] ({cBuCO(3,3-F2-1-CF3)}-[Pro(trans-4-F)]E(NMe2)[NMehhhLys(Me)]L[NMePhe(2-(4-MorPh),5-Cl)]; lactam 3-C), the values for the GI50 in data set [2], in data set [5] and in data set [7] were 20 nM, 20 nM and 1990 nM, respectively. Further, the IC50 came to 20 nM in data set [3], 20 nM in data set [4] and 540 nM in data set [6].
With `CC(C)C[C@@H]1NC(=O)[C@@H](N(C)C(=O)[C@H](CCC(=O)N2CCN(C)CC2)NC(=O)[C@@H]2C[C@@H](F)CN2C(=O)C2(C(F)(F)F)CC(F)(F)C2)CCCCCCCN(C)C(=O)[C@H](Cc2cc(Cl)ccc2-c2ccc(N3CCOCC3)cc2)N(C)C1=O` [Example 420], the GI50 in data set [2] amounted to 10 nM; in data set [5] it was 20 nM; in data set [7], 3510 nM. Besides, the IC50 came out at 20 nM in data set [3], 20 nM in data set [4] and 190 nM in data set [6].
`CC(C)C[C@@H]1NC(=O)[C@@H](N(C)C(=O)[C@H](CCCO)NC(=O)[C@@H]2C[C@@H](F)CN2C(=O)C2(C(F)(F)F)CC(F)(F)C2)CCCCCCCN(C)C(=O)[C@H](Cc2cc(Cl)ccc2-c2ccc(N3CCOCC3)cc2)N(C)C1=O` [Example 421] ({cBuCO(3,3-F2-1-CF3)}-[Pro(trans-4-F)][Nva(5-OH)][NMehhhLys(Me)]L[NMePhe(2-(4-MorPh),5-Cl)]; lactam 3-C): the GI50 in data set [2] was 10 nM; in data set [5] it was 10 nM; in data set [7], 19100 nM. For the same compound, the concentration for half-maximal inhibition (IC50) is 20 nM in data set [3], 20 nM in data set [4] and 510 nM in data set [6].
Take `[2H]C([2H])([2H])N(C(=O)[C@@H](NC(=O)[C@@H]1C[C@@H](F)CN1C(=O)C1(C(F)(F)F)CC(F)(F)C1)C1CC1)[C@H]1CCCCCCCN(C)C(=O)[C@H](Cc2cc(Cl)ccc2-c2ccc(N3CCN(C)CC3)cc2)N(C)C(=O)[C@H](CC(C)C)NC1=O` [Example 422]: the results for the GI50 in data set [2], in data set [5] and in data set [7] were 10 nM, 10 nM and 2360 nM, respectively. For the same compound, the IC50 came out at 20 nM in data set [3], 20 nM in data set [4] and 420 nM in data set [6].
